Test results: ChEMBL document CHEMBL4411343, “Synthesis and biological evaluation of novel N-substituted nipecotic acid derivatives with a cis-alkene spacer as GABA uptake inhibitors” (Bioorg Med Chem, 2019)

Legend:
[1] = biological target: Sodium- and chloride-dependent GABA transporter 2 (Mus musculus); assay: Inhibition of mouse GAT3 expressed in HEK293 cells assessed as reduction in [3H]GABA uptake preincubated for 25 mins followed by [3H]GABA addition and measured after 4 mins by microbeta liquid scintillation counting method
[2] = biological target: Sodium- and chloride-dependent betaine transporter (Mus musculus); assay: Inhibition of mouse GAT2 expressed in HEK293 cells assessed as reduction in [3H]GABA uptake preincubated for 25 mins followed by [3H]GABA addition and measured after 10 mins by microbeta liquid scintillation counting method
[3] = biological target: T1, Sodium- and chloride-dependent GABA transporter 1 (Mus musculus, UniProt P31648); assay: Displacement of NO711 from mouse GAT1 expressed in stable HEK293 cell membranes preincubated for 10 mins followed by NO711 addition and measured after 40 mins by LC-ESI-MS/MS analysis
[4] = biological target: T1, Sodium- and chloride-dependent GABA transporter 1; assay: Inhibition of mouse GAT1 expressed in HEK293 cells assessed as reduction in [3H]GABA uptake preincubated for 25 mins followed by [3H]GABA addition and measured after 4 mins by microbeta liquid scintillation counting method; format: cell-based
GABA transporter 4 = biological target: T2, GABA transporter 4 (Mus musculus, UniProt P31650); assay: Inhibition of mouse GAT4 expressed in HEK293 cells assessed as reduction in [3H]GABA uptake preincubated for 25 mins followed by [3H]GABA addition and measured after 4 mins by microbeta liquid scintillation counting method; format: cell-based
T2 sequence (P31650 whole entry): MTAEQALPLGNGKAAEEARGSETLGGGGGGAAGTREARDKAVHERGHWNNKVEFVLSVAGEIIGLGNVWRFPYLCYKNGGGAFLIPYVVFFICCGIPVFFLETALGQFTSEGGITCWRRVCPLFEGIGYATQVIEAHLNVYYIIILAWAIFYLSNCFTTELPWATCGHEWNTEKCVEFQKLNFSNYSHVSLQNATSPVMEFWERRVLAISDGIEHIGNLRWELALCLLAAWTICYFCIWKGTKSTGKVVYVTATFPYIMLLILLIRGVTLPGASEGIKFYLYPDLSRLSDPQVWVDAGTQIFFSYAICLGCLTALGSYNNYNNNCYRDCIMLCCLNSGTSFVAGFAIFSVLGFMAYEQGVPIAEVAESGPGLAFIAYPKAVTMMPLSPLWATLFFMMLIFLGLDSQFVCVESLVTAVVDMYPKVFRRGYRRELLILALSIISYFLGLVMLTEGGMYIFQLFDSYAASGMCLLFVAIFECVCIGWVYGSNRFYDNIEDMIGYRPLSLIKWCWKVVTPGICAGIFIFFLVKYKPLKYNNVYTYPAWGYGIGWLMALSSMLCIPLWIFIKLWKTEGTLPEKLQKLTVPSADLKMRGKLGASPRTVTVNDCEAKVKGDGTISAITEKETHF

[5] = system: Sodium- and chloride-dependent GABA transporter 2 (Mus musculus); assay: Inhibition of mouse GAT3 expressed in HEK293 cells assessed as remaining [3H]GABA uptake at 100 uM preincubated for 25 mins followed by [3H]GABA addition and measured after 4 mins by liquid scintillation counting method relative to control
[6] = system: Sodium- and chloride-dependent betaine transporter (Mus musculus); assay: Inhibition of mouse GAT2 expressed in HEK293 cells assessed as remaining [3H]GABA uptake at 100 uM preincubated for 25 mins followed by [3H]GABA addition and measured after 10 mins by liquid scintillation counting method relative to control
[7] = biological target: T1, Sodium- and chloride-dependent GABA transporter 1; assay: Inhibition of mouse GAT1 expressed in HEK293 cells assessed as remaining [3H]GABA uptake at 100 uM preincubated for 25 mins followed by [3H]GABA addition and measured after 4 mins by liquid scintillation counting method relative to control; format: cell-based; conditions: read-out: Activity
[8] = biological target: T1, Sodium- and chloride-dependent GABA transporter 1; assay: Displacement of NO711 from mouse GAT1 expressed in stable HEK293 cells assessed as remaining specific NO711 binding level preincubated at 100 uM for 10 mins followed by NO711 addition and measured after 40 mins by LC-ESI-MS/MS analysis; format: cell-based; conditions: read-out: Activity
[9] = biological target: T3, GABA transporter 4 (Mus musculus) (UniProt P31650); assay: Inhibition of mouse GAT4 expressed in HEK293 cells assessed as remaining [3H]GABA uptake at 100 uM preincubated for 25 mins followed by [3H]GABA addition and measured after 4 mins by liquid scintillation counting method relative to control; format: cell-based
T3 sequence (whole entry): T2 sequence (P31650 whole entry)

SMILES | pIC50 [1] | pIC50 [2] | Ki [3] [µM] | IC50 [4] [µM] | IC50 (GABA transporter 4) [µM] | activity at 100 µM [5] [%] | activity at 100 µM [6] [%] | activity at 100 µM [7] [%] | activity at 100 µM [8] [%] | Activity [9] [%]
COc1ccc(C(C#CCN2CCCC(C(=O)O)C2)(c2ccc(OC)cc2)c2ccc(OC)cc2)cc1 (racemic) | 4.61 | 4.36 |  |  |  |  |  |  |  | 
O=C(O)C1CCCN(C/C=C\CC(c2ccccc2)(c2ccccc2)c2ccccc2)C1 (racemic) |  |  | 0.513 | 1 | 15.1 | 56 | 70 |  |  | 
COc1ccc(C(/C=C\CN2CCCC(C(=O)O)C2)c2ccc(OC)cc2)cc1 (racemic) |  |  | 26.3 |  | 49 | 72 | 68 | 62 |  | 
COc1ccc(CC(/C=C\CN2CCCC(C(=O)O)C2)(c2ccc(OC)cc2)c2ccc(OC)cc2)cc1 (racemic) |  |  | 25.7 | 74.1 | 57.5 |  | 65 |  |  | 
COc1ccc(C(/C=C\CN2CCCC(C(=O)O)C2)(c2ccc(OC)cc2)c2nccs2)cc1 (racemic) |  |  |  |  |  | 78 | 67 | 69 | 78 | 83
COc1ccc(C(/C=C\CCN2CCCC(C(=O)O)C2)(c2ccc(OC)cc2)c2ccc(OC)cc2)cc1 (racemic) |  |  | 23.4 | 30.9 | 16.2 |  | 63 |  |  | 
COc1ccc(C(/C=C\CN2CCCC(C(=O)O)C2)(c2ccc(OC)cc2)c2ccc(OC)cc2)cc1 (racemic) |  |  | 17.8 |  |  |  |  |  |  | 
COc1ccc(C(/C=C\CN2CCCC(C(=O)O)C2)(Cc2ccccc2)c2ccc(OC)cc2)cc1 (racemic) |  |  | 41.7 | 38 | 63.1 | 57 |  |  |  | 
O=C(O)C1CCCN(CC/C=C\C(c2ccccc2)(c2ccccc2)c2ccccc2)C1 (racemic) |  |  | 7.41 | 40.7 | 17.4 |  |  |  |  | 
COc1ccc(C(/C=C\CN2CCCC(C(=O)O)C2)(c2ccc(OC)cc2)c2ccsc2)cc1 (racemic) |  |  |  | 79.4 | 33.1 | 49 |  |  | 62 | 
COc1ccc(C(/C=C\CN2CCCC(C(=O)O)C2)(c2ccc(OC)cc2)c2ccc3c(c2)OCO3)cc1 (racemic) |  |  | 53.7 | 95.5 | 10 |  |  |  |  | 
COc1ccc(C(C/C=C\CN2CCCC(C(=O)O)C2)(c2ccc(OC)cc2)c2ccc(OC)cc2)cc1 (racemic) |  |  | 24 | 41.7 | 61.7 |  | 52 |  |  | 
COc1ccc(C(O)(/C=C\CN2CCCC(C(=O)O)C2)c2ccc(OC)cc2)cc1 (racemic) |  |  |  |  |  | 97 | 85 | 81 | 53 | 80
